Laboratory results taken from the Kinase Knowledgebase extract (Sharma et al. 2016).
pIC50: −log10 of the molar value.

Tests used:
MAPK14 (human) = MAPK14 (human) (UniProt Q16539); experiment: Inhibition of MAPK14 Kinase Activity
MAPK14 (mouse) = experiment: Assessment of MAPK14 Kinase Activity in RAW 264.7 Cells

Chain of MAPK14 (human) (Q16539 whole entry, looked up): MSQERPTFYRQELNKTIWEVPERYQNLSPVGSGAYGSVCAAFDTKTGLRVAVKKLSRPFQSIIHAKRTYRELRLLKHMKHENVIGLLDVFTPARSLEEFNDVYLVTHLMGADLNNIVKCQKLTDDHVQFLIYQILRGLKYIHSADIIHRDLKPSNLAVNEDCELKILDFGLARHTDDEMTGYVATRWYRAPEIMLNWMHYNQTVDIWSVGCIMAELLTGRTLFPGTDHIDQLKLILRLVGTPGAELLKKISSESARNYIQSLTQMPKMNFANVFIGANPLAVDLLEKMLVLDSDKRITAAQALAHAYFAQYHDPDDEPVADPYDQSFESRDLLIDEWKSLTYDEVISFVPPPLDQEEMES

Structure (SMILES)	pIC50 (MAPK14 (human))	pIC50 (MAPK14 (mouse))
CC(C)Cn1c(N)nc2ccc(-c3[nH]c(C(C)(C)C)nc3-c3ccccc3)nc21	8.29	7.18
CC(C)Cn1c(N)nc2ccc(-c3[nH]c(-c4c(Cl)cccc4Cl)nc3-c3ccc(F)cc3F)nc21	–	7.51
CC(C)Cn1c(N)nc2ccc(-c3[nH]c(-c4c(Cl)cccc4Cl)nc3-c3ccccc3)nc21	8.43	7.19
CC(C)(C)Cn1c(N)nc2ccc(-c3[nH]c(-c4c(F)cccc4Cl)nc3-c3ccccc3)nc21	–	7.41
CC(C)Cn1c(N)nc2ccc(-c3[nH]c(C(C)(C)C)nc3-c3ccc(F)cc3F)nc21	–	7.38
CC(C)(C)Cn1c(N)nc2ccc(-c3[nH]c(-c4c(F)cccc4F)nc3-c3ccc(F)cc3)nc21	8.14	–
CC(C)(C)Cn1c(N)nc2ccc(-c3[nH]c(-c4c(Cl)cccc4Cl)nc3-c3ccc(F)cc3)nc21	8.44	7.64
CC(C)(C)Cn1c(N)nc2ccc(-c3[nH]c(C(C)(C)C)nc3-c3ccc(F)cc3F)nc21	–	7.68
CC(C)(C)Cn1c(N)nc2ccc(-c3[nH]c(C(C)(C)C)nc3-c3ccc(F)cc3)nc21	8.15	7.46
